Assay results published in patent US9029415B2, “Cooling mixtures with an enhanced cooling effect of 5-methyl-2-(propane-2-yl)cyclohexyl-N-ethyloxamate” (Symrise AG, priority 2010, dated 2015).

Assays:
skin = experiment: Cooling effect of the formulation examples as perceived by the test persons; format: in vivo, human
Excerpt: Provided the corresponding formulations also contained trans-4-tert. butylcyclohexanol, the cooling effect was even further enhanced compared to formulations without this compound.

[1] = tested on: skin (both cheeks) of test persons; experiment: In-vivo half-side cheek test of cooling intensity of O/W cream samples (20 panellists, scale 1-10, 30 minutes); parameters: species or system human; settings: FIG. 1
Method: The aim of the human in vivo studies was to test the effect of the cooling mixture according to the invention in O/W formulations with regard to their cooling intensity. What was to be examined here was whether the cooling effect/cooling intensity of 5-methyl-2-(propane-2-yl)cyclohexyl-N-ethyloxamate will be enhanced in the combination of active substances according to the invention. Each individual test was carried out using 20 panellists under standardized conditions in a test institute. To this end, each test person spread two defined quantities of cream samples onto both cheeks at the same time. […] Upon application of the samples, the test persons evaluated the cooling intensities on a scale of 1-10 within a period of 30 minutes (1=weak; 10=strong). The studies were carried out as double blind studies, therefore the test institute received the formulations in an encoded form. In order to ensure test standardization, the following conditions were selected: • Controlled ventilation and temperature conditions in the room of the test persons • Use of a standardized test protocol • Detailed explanation of the test protocol • Samples were given to the test persons in uniform, clear containers • Samples were labeled with a three-digit code • A sample amount of 0.3 g of cream was applied onto each cheek • Samples were covered with a lid in order to avoid drying out of the samples • Test persons were instructed not to use any makeup on the day of the test and not to use any cosmetic products at least two hours before the test • The test persons evaluated the cooling effect of the two products on a scale of 1-10 (1=weak, 10=strong) at 32 identical points in time
The data obtained during the studies was examined with regard to any significant differences between the two samples. To this end, the data was initially examined for standard normal distribution. Provided the data met the criteria of a standard normal distribution, a pairwise t test was carried out. […] Where no normal distribution of the values was found, significance was determined via a non-parametric Wilcoxon. […]

CCCCCCCCC(O)CO (centres unmarked) [1,2-decanediol]
enhancement of cooling effect when 1,2-pentanediol is replaced (skin; 1,2-pentanediol replaced with 1,2-decanediol in an amount of one fifth of the pentanediol): applies analogously

CCCCC(O)CO (centres unmarked) [1,2-hexanediol]
enhancement of cooling effect when 1,2-pentanediol is replaced (skin; 1,2-pentanediol in the formulations replaced with 1,2-hexanediol at a ratio of 5:3): comparable effects are achieved

CCNC(=O)C(=O)O[C@@H]1C[C@H](C)CC[C@H]1C(C)C [MEO, (1R,2S,5R)-5-methyl-2-(propane-2-yl)cyclohexyl N ethyl oxamate]
cooling effect (cooling intensity, scale 1-10) ([1]; O/W emulsion with 1.0 % MEO, 0.3 g cream per cheek, 20 panellists): marked cooling effect | onset of the cooling effect ([1]; after application of the formulation onto the cheek): immediately upon application | duration of the cooling effect ([1]; evaluation period 30 minutes): more than 30 minutes
